Measurements as given in patent publication US9011816B2, “Fibronectin targeting contrast agent” (Case Western Reserve University, priority 2011, dated 2015).

Experiments:
[1] = system: orthotopic human prostate tumor; assay: in vivo MR imaging of orthotopic human prostate tumor in nu/nu nude athymic mice; conditions: nu/nu nude athymic mice bearing orthotopic human prostate tumor; 0.03 mmol-Gd/kg; versus non-targeted scrambled CLT1-(DOTA-Gd)4
Procedure: In animal tumor models […] athymic nu/nu mice (4-6 weeks old), were purchased from the Animal Resource Center (ARC) of Case Western Reserve Universitey. A suspension of PC3 with GFP cells (PC3-GFP) were harvested and suspended in a sterile phosphate-buffered saline solution. The mixture (5×10^5 cells, 25 μL) was surgically inoculated into the ventral prostate through the dorsal prostate.
FIG. 3 illustrates an enhancement ratio and a signal to noise ratio of the targeted CLT1-(DOTA-Gd)4 and non-targeted scrambled CLT1-(DOTA-Gd)4. The MRI contrast agents, targeted CLT1-(DOTA-Gd)4 and non-targeted scrambled CLT1-(DOTA-Gd)4 were administer at 0.03 mmol-Gd/kg in nu/nu nude athymic mice (n=4) bearing orthotopic human prostate tumor.

[2] = system: orthotopic 4T1 breast tumor; assay: in vivo T1-weighted MR imaging of orthotopic 4T1 breast tumor in BALB/c mice; conditions: BALB/c mice bearing orthotopic 4T1 breast tumor; 0.03 mmol-Gd/kg; T1 weighted axial 2D gradient images; versus non-targeted scrambled CLT1-(DOTA-Gd)4
Procedure: A […] breast tumor model was also run. A 4T1 cell line was cultured using ATCC complete growth medium. Female Balb/c mice (4-6 weeks old) were purchased from Jackson Lab. The suspension of 4T1 cells in PBS was mixed with Matrigel matrix at 1:1 ratio. The mixture (2×10^6 cells, 100 μL) was surgically implanted in the mammary pad of a mouse when a mouse was approximately 8-10 weeks old.
FIG. 2 illustrates T1-weighted axial 2D gradient images of […] breast cancer tumor. Both CLT1-(DOTA-Gd)4 and non-targeted scrambled CLT1-(DOTA-Gd)4 were investigated in […] BALB/c mice bearing orthotopic 4T1 […] breast tumor. […] The images in row (A) of the targeted CLT1-(DOTA-Gd)4. Images in row (A) illustrate a time sequence of the targeted CLT1-(DOTA-Gd)4. Images in row (B) illustrate the time sequence for non-targeted CLT1-(DOTA-Gd)4.

[3] = system: atherosclerotic ApoE-deficient mice; assay: in vivo MR imaging in atherosclerotic ApoE-deficient mice; conditions: images at baseline and in fifteen minute intervals up to sixty minutes after injection, versus scrambled peptides and Magnevist
Excerpt: An atherosclerotic mice model was run with 12 week old Apoe knockout mice (B6.129P2 Apotem1UNC/J) and control mice (C57BL/J6) were purchased from Jackson Lab. Apoe knockout mice were fed with a high fat diet (60% fat) after arriving and were maintained for 6 months. Control mice were fed with a normal diet (6% fat).
FIG. 1 illustrates in vivo MR images acquired in atherosclerotic ApoE-deficient mice before and after injection of targeted CLTI-(DOTA-Gd)4 or CREKA-(DOTA-Gd)4 and non-targeted controls. Arrows point to atherosclerotic aorta and insets are enlargements of aorta. The images show a baseline image at zero minutes before an injection of contrast agent. The images progress to injection and in fifteen minute intervals up to sixty minutes. The images illustrate targeted peptides, scrambled peptides, and Magnevist.

CLT1-PEG-(Lys)3-(DOTA-Gd)4 [CLT1-(DOTA-Gd)4]
signal intensity within the tumor tissue (enhancement ratio, signal to noise ratio; FIG. 3) [1]: greater enhancement than non-target agents
MR contrast enhancement in tumor tissue (FIG. 2) [2]: greater and longer enhancement in tumor tissue compared to non-targeted scrambled CLT1-(DOTA-Gd)4
MR contrast enhancement (FIG. 1) [3]: greater and longer enhancement in tumor tissue compared to non-targeted scrambled peptides and controls
